Data set [1] has as its system SU-DHL-10 cell line (human B cell lymphoma). The experiment in a line: Cell cytotoxicity in SU-DHL-10 cell line (CellTiter-Glo). Type of data set: cell-based. As to conditions: Homo sapiens, SU-DHL10, 72 h, 72 h treatment, CTG. Here is the method:
Certain Example compounds of the invention and Comparator Compound 1 were tested in the SU-DHL-10 cell line (human B cell lymphoma). Compounds which show efficacy in this assay are expected to be useful as agents for treating or preventing hyperproliferative disorders such as cancer.
(§1) Cells were seeded in 96-well microplates and treated with compounds or cisplatin (as a positive control) at 9 increasing concentrations in technical triplicate. […] On day 1, 90 μL of various cell suspensions with the number of cells ranging from 5000-8000 cells/well were seeded into wells of a 96-well plate (Corning). The number of cells to be seeded was previously determined. • 2. All 96-wells plates with cells were placed in an incubator overnight at 37° C. with 5% CO2. • 3. On day 2, cells were observed under a microscope ensuring the cells treated with vehicle control were in good condition. • 4. A dilution series of the test compounds and cisplatin were prepared at 10× the final concentrations required. 10 μL/well of 10× compound solution was added to the corresponding plates. The final volume was 100 μL/well for all the plates. Final DMSO concentration was 0.1%. • 5. On day 5 (after 72 hours of incubation), 50 μL of CTG reagent was added to each well. • 6. Contents were mixed for 5 minutes on an orbital shaker to facilitate cell lysis. • 7. The plate was allowed to incubate at room temperature for 10 minutes to stabilize luminescent signals.
Luminescence was recorded using an EnVision Multi Label Reader. Data analysis was performed using GraphPad Prism 8.0.
To calculate IC50, a concentration-response curve was generated using a nonlinear regression model with a sigmoidal concentration response. The formula for calculating the % of viable cells was shown below, and the IC50s are automatically generated by GraphPad Prism 8.0.
(LumTest article=luminescence in test article treated well; LumNone treated=luminescence in vehicle treated well; LumMedium control=luminescence in a well containing only medium and no cells; LumNone treated-LumMedium control was set as 100%)

Data set [2] can be described thus: Caco-2 cell permeability assay. It counts as in vitro ADME. As to conditions: human, Caco-2, pH 7.4, basal to apical Papp, pH 7.4, 2.5 h. Here is the method: (§2) Certain Example compounds and Comparative Example 1 were tested for their apical to basal (AB) and basal to apical (BA) permeability in Caco-2 cells.
(§3) Cell Culture: Caco-2 cells were grown for 10 days in 96-well plates in HBSS buffer containing 10 mM HEPES. Both the apical and basal pH was buffered at pH 7.4. The apical/basal volumes were 75 μl and 250 μl respectively. The incubation time was 2.5 h at 37° C. (without shaking) under 5% CO2 & 95% relative humidity.
(§4) Cell Seeding: Cells were seeded at a density of 18750 cells/well (membrane area=0.0804 cm^2) in a 96 well plate.
(§5) AB Assay: 75 μl of cell suspension was added at a density 2.5×10^5 cells/ml to the apical wells. 40 ml media was added to the feeder tray. The plates were placed in the incubator (37° C., 5% CO2 and controlled humidity). The Caco-2 cells were grown for 10 days with a media change on every alternate day.
(§6) BA Assay: 25 μl of cell suspension was added at a density of 7.5×10^5 cells/ml to the bottom side (keeping the plate upside down) of apical wells. The plate (upside down position) was placed in the incubator (37° C., 5% CO2 and 95% Relative humidity) for 2 h. The plate was turned right side up. 75 μl media was added to the apical wells and 40 ml media to the feeder tray.
(§7) Permeablity Assay: The apical and basal wells were washed with buffer (pH 7.4) and 250 μl buffer was added to the wells of the basal plate. 75 μl of compound solution (2 μM, dissolved in water with 1% DMSO) was transferred to the apical wells (n=2). The apical plate was placed onto the basal plate. The lid was placed on to prevent evaporation. The assembly was incubated at 37° C. for 2.5 h (without shaking) under 5% CO2 and 95% relative humidity. After incubation the apical plate was separated from the basal plate. Aliquots were taken out from the acceptor and donor wells, diluted and quantified using LC-MS/MS along with initial donor samples.
(§8) Membrane Integrity Test: Solution in the apical wells was discarded by inverting the plate and soaking onto tissue paper. 250 μl buffer (pH 7.4) was added to each well of basal plate and 75 μl of Lucifer Yellow (LY; 0.1 mg/ml) in buffer (pH 7.4) to the wells of apical plate. The apical plate was placed onto the basal plate and the lid used to prevent evaporation. The assembly was incubated at 37° C. for 1 h (without shaking) under 5% CO2 and 95% relative humidity. The apical plate was separated from the basal plate. Fluorescence (Ex: 432 nm, Em: 530 nm) of aliquots (100 ul) was measured from basal wells. Fluorescence of 100 μl buffer (pH 7.4) and 100 μl LY(0.1 mg/ml) was also measured. Wells having more than 1% fluorescence intensity with respect to 0.1 mg/ml LY were considered non-integrated membrane. Such wells, if any, were not considered for permeability calculation.
(§9) Calculation: Drug was detected and quantified by LC-MS/MS. Data generated took the form of an apparent permeability (Papp) value. Papp=[Va/(AreaxTime)]×(LC-MS Area of Acceptor sample×Sample dilution factor/LC-MS Area of Initial Donor). Va=Volume of Acceptor Well (in ml)=0.25, Vd=Volume of Donor Well (in ml)=0.075, Area=Surface area of the membrane (cm2)=0.0804, Time=Time of incubation (sec)=9000 Results: The results of the assay are shown in Table 3 below.
For orientation: Passage across Caco-2 layers is used to estimate intestinal permeability.

For data set [3], the system named is Caco-2 cells. The experiment in a line: Caco-2 cell permeability assay. It counts as in vitro ADME. As to conditions: apical to basal Papp, 2 μM, pH 7.4, 2.5 h. Here is the method: as §2, §3, §4, §5, §6, §7, §8, §9
For data set [4], the system named is rat hepatocytes. The data set can be described thus: Hepatocyte metabolic stability, rat. It counts as in vitro ADME. Here is the method:
(§10) Biological Example 6: Rat hepatocyte half life Certain Example compounds and Comparator Compound 1 were tested for metabolic stability in a metabolic assay using mouse- and rat-derived hepatocytes. Compounds having good metabolic stability in the assay are expected to be especially useful as agents for preventing and/or treating cancer, by having a long half-life in human patients.
(§11) Frozen pooled rat and mouse hepatocytes obtained from LifeTechnologies were thawed and purified according to the manufacturer's instructions. The test compound (4 mM) in DMSO was diluted with acetonitrile to provide a 100 μM sub-stock then further diluted with pH 7.4 Krebs-Henseleit buffer (supplemented with CaCl2, NaHCO3, HEPES, fructose and glycine) to provide a 2 μM working solution. 25 μL of working solution was incubated at 37° C., treated with 25 μL of rat or mouse hepatocyte suspension (containing 1×10^6 cells/mL) and incubated at 37° C. with 5% CO2 level at 95% relative humidity. Wells were incubated for an appropriate time (0, 15, 30, 45, 60 and 75 min) then quenched with 250 μL of acetonitrile containing reference standards diltiazem, 7-ethoxycoumarin and propranolol). The plates were shaken, sonicated for 5 min then cooled to 4° C. until all sampling was complete. All plates were centrifuged at 4000 rpm for 20 min to pellet the debris. 110 μL supernatant was diluted 110 μL water and quantitated using LC-MS/MS.
(§12) A linear regression curve was fitted to a plot of natural logarithm (In) of AUC against time. The T-half (min)=0.693/slope

Data set [5] deals with mouse hepatocytes. The data set can be described thus: Hepatocyte metabolic stability, mouse. It counts as in vitro ADME. Here is the method: as §10, §11, §12
Data set [6] relates to DOHH-2 tumor cells. The experiment in a line: Subcutaneous xenograft DOHH-2 lymphoma model. It counts as in vivo, CB17/SCID mice. On the procedure: The in vivo efficacy of certain Example compounds was assessed in a subcutaneous xenograft DOHH-2 Lymphoma Model using 10 female 6-8 week old CB17/SCID Mice. Each mouse was inoculated subcutaneously at the right front region with DOHH-2 tumor cells (5×10^6) in 0.1 ml of PBS mixed with matrigel (1:1 PBS:matrigel) for tumor development. The test compound administration started once the mean tumor size reached approximately 100-150 mm^3.
Compounds were administered either IP (vehicle 10 mM sodium phosphate+0.2% Tween-80 (pH7.4) or orally (vehicle 15 Na2HPO4 buffer (10 mM) (pH 4.5)+0.2% tween 80). Tumor volumes were measured in two dimensions using a caliper, and the volume expressed in mm^3 using the formula: V=(L×W×W)/2, where V is tumor volume, L is tumor length (the longest tumor dimension) and W is tumor width (the longest tumor dimension perpendicular to L).
Mice were dosed with Example 21 orally (12.5 or 25 mg/kg) once a day for 9 consecutive days (FIG. 3). Example 5 was dosed intraperitoneally (7 or 20 mg/kg) in a cycle consisting of administration QD for three days followed by a three day no-dosing period followed by QD dosing for a further three days (FIG. 4). Example 12 was dosed intraperitoneally (0.7 or 2 mg/kg) in a cycle consisting of administration QD for three days followed by a three day no-dosing period followed by QD dosing for a further three days (FIG. 5). In a separate study Example 12 was dosed at […] in a cycle consisting of administration QD for two days followed by either four or six day no-dosing period, and this cycle was repeated three times (FIG. 6).

In data set [7] the test system is LYXFDLBC2835 (patient-derived xenograft lymphoma). The data set can be described thus: Cell cytotoxicity CellTiter-Glo, LYXFDLBC2835. It counts as cell-based. Here is the method: as §1
(§13) The effects of Comparator Compound 1 and certain Example compounds on the viability of various cell lines (LYXFDLBC2835, LYXFDLBC4009 and LYXFDLBC411 (patient-derived xenograft lymphoma), HT1080 (human fibrosarcoma), CA46 (human B cell lymphoma), RKO (human colon carcinoma), NCI-H1703 (human lung squamous cell carcinoma), MX-1 (human breast carcinoma), DU4475 (human breast carcinoma), LU2511 (human lung large cell undifferentiated carcinoma), LU0884 (human lung squamous cell carcinoma)), Panc-1 (human pancreatic carcinoma), MCF-7 (human breast cancer), SW480 (human colon adenocarcinoma) and HCC1806 (human breast ductal carcinoma) were performed using the standard CellTiter-Glo assay (CTG, Promega) as described in Biological Example 2. Compounds which show efficacy in these assays are expected to be useful as agents for treating or preventing hyperproliferative disorders such as cancer.
(In general: In ATP-based viability assays light output follows the ATP content of the culture.)

For data set [8], the system named is LYXFDLBC4009 (patient-derived xenograft lymphoma). The data set can be described thus: Cell cytotoxicity CellTiter-Glo, LYXFDLBC4009. Type of data set: cell-based. On the procedure:
as §1, §13

Data set [9] relates to LYXFDLBC4113 (patient-derived xenograft lymphoma). The data set can be described thus: Cell cytotoxicity CellTiter-Glo, LYXFDLBC4113. Type of data set: cell-based. Here is the method:
as §1, §13

SMILES strings stand for the structures.

This note sets out measurements from patent publication US12599676B2, “Cytotoxic imidazo[1,2-A]pyridine compounds and their use in therapy” (MyricX Pharma Limited, priority 2022, dated 2026).

The IC50 is the point on the concentration scale where inhibition reaches its midpoint. Usually Papp B→A stands for how fast a substance crosses the layer from the basolateral side. In data set [1], `CNCc1cnc2ccc(-c3ccc(F)cc3OCCc3c(C(C)O)nn(C)c3C)cn12` (stereo not drawn) [Example 1, 1-{4-[2-(5-fluoro-2-{3-[(methylamino)methyl]imidazo[1,2-a]pyridin-6-yl}phenoxy)ethyl]-1,5-dimethyl-1H-pyrazol-3-yl}ethan-1-ol] returned an IC50 of 0.0153 µM. In data set [2], the Papp B→A at 2.5 h, 2 μM was 14.1 ×10⁻⁶ cm/s. Moreover, the “Caco-2 A-B” value in data set [3] came to 0.1 ×10⁻⁶ cm/s. Also, the “rHeps t^1/2” value in data set [4] is on record as 68 min.

`CNCc1cnc2ccc(-c3ccc(F)c(F)c3OCCc3c(C(C)O)nn(C)c3C)cn12` (stereo not drawn) [Example 5, 1-{4-[2-(2,3-difluoro-6-{3-[(methylamino)methyl]imidazo[1,2-a]pyridin-6-yl}phenoxy)ethyl]-1,5-dimethyl-1H-pyrazol-3-yl}ethan-1-ol] yielded an IC50 in data set [1] of 0.0059 µM. Moreover, the Papp B→A at 2.5 h, 2 μM in data set [2] is 16 ×10⁻⁶ cm/s. For the same compound, the “Caco-2 A-B” value in data set [3] is 0.195 ×10⁻⁶ cm/s. For the same compound, the “mHeps t^1/2” value in data set [5] is 51.17 min. Also, in [6] (intraperitoneal dosing (Example 5: 7 or 20 mg/kg; Example 12: 0.7 or 2 mg/kg), QD cycles), the “tumour volume compared to vehicle” value is on record as “significant reduction in tumour volume or reduced growth in tumour volume”.

Compound `Cc1c(CCOc2c(-c3ccc4ncc(CN(C)C)n4c3)ccc(F)c2F)c(C(C)O)nn1C` (stereo not drawn) [Example 6, 1-(4-(2-(6-(3-((dimethylamino)methyl)imidazo[1,2-a]pyridin-6-yl)-2,3-difluorophenoxy)ethyl)-1,5-dimethyl-1H-pyrazol-3-yl)ethan-1-ol] yielded an IC50 in data set [1] of 0.005 µM. The Papp B→A at 2.5 h, 2 μM in [2] came out at 22 ×10⁻⁶ cm/s. Also, the “Caco-2 A-B” value in [3] came out at 3.04 ×10⁻⁶ cm/s. Moreover, the “rHeps t^1/2” value in [4] amounted to 15 min.

With `CNCc1cnc2ccc(-c3ccc(F)c(F)c3OCCc3c(C(C)(C)O)nn(C)c3C)cn12` [Example 21, 2-(4-(2-(2,3-difluoro-6-(3-((methylamino)methyl)imidazo[1,2-a]pyridin-6-yl)phenoxy)ethyl)-1,5-dimethyl-1H-pyrazol-3-yl)propan-2-ol], the IC50 in data set [1] was 0.0004 µM; in data set [7] it was 0.054 µM; in data set [8] it was 0.035 µM; in [9], 0.023 µM. Further, the “tumour volume compared to vehicle” value in [6] (oral dosing 12.5 or 25 mg/kg once a day for 9 days) is given as “significant reduction in tumour volume or reduced growth in tumour volume”.
